ChEMBL document CHEMBL1127436, “[(3-Pyridylalkyl)piperidylidene]benzocycloheptapyridine derivatives as dual antagonists of PAF and histamine” (J Med Chem, 1994)

What was measured:
Format in all cases: functional
Rattus norvegicus [1] = assay: Intravenous dose required to reduce the lowering of the arterial blood pressure caused by PAF; settings: for ED50: Rattus norvegicus, Arterial blood, iv, read-out: ID50 (the source's name)
Oryctolagus cuniculus = species: Oryctolagus cuniculus; assay: Concentration required to inhibit PAF-induced maximum aggregation
Mus musculus [2] = species: Mus musculus; assay: Dose required to inhibit PAF-induced mortality; settings: read-out: ID50 (the source's name)
Rattus norvegicus [3] = assay: Tested at 10 (mg/kg) intravenous dose for percent inhibition of the arterial blood pressure in normotensive rats caused by histamine
Mus musculus [4] = assay: Antiallergic activity was evaluated using active anaphylactic test after po administration in mice; settings: read-out: ID50 (the source's name)
Cavia porcellus [5] = species: Cavia porcellus; assay: Tested for concentration required to inhibit H1 histamine -induced guinea pig ileum contraction
Mus musculus [6] = assay: Antiallergic activity was evaluated using active anaphylactic test after po administration of 10 (mg/kg) in mice
Rattus norvegicus [7] = species: Rattus norvegicus; assay: Tested for dose required to inhibit endotoxin induced mortality in rats; settings: read-out: ID50 (the source's name)
Mus musculus [8] = species: Mus musculus; assay: Tested for dose required to inhibit endotoxin induced mortality in mice; settings: read-out: ID50 (the source's name)
Mus musculus [9] = assay: Tested for effect on central nervous system in mice at 100 mg/kg peroral dose for spontaneous motor activity (SMA) expressed as percentage relative to control; settings: route oral
Mus musculus [10] = assay: Tested for effect on central nervous system in mice at 100 mg/kg peroral dose barbiturate-sleeping time (BST); settings: route oral
Rattus norvegicus [11] = species: Rattus norvegicus; assay: Tested for dose required to inhibit antigen induced increased permeability; settings: read-out: ID50 (the source's name)
Cavia porcellus [12] = species: Cavia porcellus; assay: Tested for concentration required to inhibit histamine -induced ileum contraction
Mus musculus [13] = assay: Antiallergic activity was evaluated using active anaphylactic test after po administration of 30 (mg/kg) in mice
Rattus norvegicus [14] = assay: Tested at 10 (mg/kg) intravenous dose for percent inhibition required to reduce the lowering of the arterial blood pressure caused by histamine
Rattus norvegicus [15] = assay: Tested at 30 (mg/kg) dose for percent inhibition required to inhibit mortality in sensitized animals by histamine

Row | Compound | ED50 (Rattus norvegicus [1]) | IC50 (Oryctolagus cuniculus) | ED50 (Mus musculus [2]) | ED50 (Mus musculus [4]) | IC50 (Cavia porcellus [5]) | also measured
1 | O=C(c1ccc(O)nc1)N1CCC(=C2c3ccc(Cl)cc3CCc3cccnc32)CC1 | 1.5 mg/kg | 1500 nM | > 3 mg/kg | > 30 mg/kg | 390 nM | Inhibition (Rattus norvegicus [3]): 67%
2 | O=C(c1cccnc1O)N1CCC(=C2c3ccc(Cl)cc3CCc3cccnc32)CC1 |  | > 100000 nM | > 30 mg/kg |  |  | Inhibition (Mus musculus [6]): 56%
3 | Clc1ccc2c(c1)CCc1cccnc1C2=C1CCN(Cc2ccncc2)CC1 |  | 1800 nM |  | 6.1 mg/kg | 94 nM | Inhibition (Rattus norvegicus [3]): 85.1%
4 | CN(C)CCOC(c1ccccc1)c1ccccc1 [DIPHENHYDRAMINE] |  |  |  |  |  | ED50 (Rattus norvegicus [7]): > 5 mg/kg; ED50 (Mus musculus [8]): > 10 mg/kg
5 | COc1ccc(CN2CCC(=C3c4ccc(Cl)cc4CCc4cccnc43)CC2)cn1 |  | 37000 nM | < 30 mg/kg | 5.9 mg/kg | 380 nM | 
6 | COC(=O)c1ccncc1C(=O)N1CCC(=C2c3ccc(Cl)cc3CCc3cccnc32)CC1 | > 5 mg/kg | 17000 nM | > 30 mg/kg | 11 mg/kg |  | 
7 | O=C(O)c1cncc(CN2CCC(=C3c4ccc(Cl)cc4CCc4cccnc43)CC2)c1 | > 5 mg/kg | 85000 nM | > 30 mg/kg | 6.5 mg/kg | 350 nM | 
8 | CC(c1cccnc1)N1CCC(=C2c3ccc(Cl)cc3CCc3cccnc32)CC1.Cl (centres undefined) | > 5 mg/kg | 8200 nM | > 30 mg/kg | > 30 mg/kg |  | 
9 | Cc1cncc(CN2CCC(=C3c4ccc(Cl)cc4CCc4cccnc43)CC2)c1 [RUPATADINE] |  | 3700 nM |  | 13 mg/kg |  | ED50 (Rattus norvegicus [7]): 0.5 mg/kg; Inhibition (Rattus norvegicus [3]): 89%; Relative to control (Mus musculus [9]): 97%; X (Mus musculus [10]): 138 min; ED50 (Rattus norvegicus [11]): 1.2 mg/kg; ED50 (Mus musculus [8]): 1.2 mg/kg
10 | O=C(c1cccnc1Cl)N1CCC(=C2c3ccc(Cl)cc3CCc3cccnc32)CC1 |  | > 100000 nM |  | > 30 mg/kg |  | IC50 (Cavia porcellus [12]): 130 nM
11 | Cl.Clc1ccc2c(c1)CCc1cccnc1C2=C1CCN(CCc2cccnc2)CC1 | > 5 mg/kg | 34000 nM | > 30 mg/kg | > 30 mg/kg | 360 nM | Inhibition (Rattus norvegicus [3]): 95.4%
12 | O=C(c1cncc(Br)c1)N1CCC(=C2c3ccc(Cl)cc3CCc3cccnc32)CC1 | > 5 mg/kg | 3400 nM | > 30 mg/kg | > 30 mg/kg |  | 
13 | Cc1cncc(C(=O)N2CCC(=C3c4ccc(Cl)cc4CCc4cccnc43)CC2)c1 | > 5 mg/kg | 3100 nM |  | 12 mg/kg | 350 nM | 
14 | CC(=O)N1CCC(=C2c3ccc(Cl)cc3CCc3cccnc32)CC1 [SCH-37370] |  | 840 nM |  | 19 mg/kg | 100 nM | ED50 (Rattus norvegicus [7]): > 5 mg/kg; Inhibition (Rattus norvegicus [3]): 55.1%; X (Mus musculus [10]): 296 min; ED50 (Rattus norvegicus [11]): 10 mg/kg; ED50 (Mus musculus [8]): > 10 mg/kg
15 | CCOC(=O)N1CCC(=C2c3ccc(Cl)cc3CCc3cccnc32)CC1 [LORATADINE] |  |  |  | 19 mg/kg |  | ED50 (Rattus norvegicus [7]): > 5 mg/kg; Inhibition (Rattus norvegicus [3]): 66.3%; Relative to control (Mus musculus [9]): 106%; X (Mus musculus [10]): 320 min; ED50 (Rattus norvegicus [11]): 2.4 mg/kg; ED50 (Mus musculus [8]): > 10 mg/kg
16 | COc1ccc(C(=O)N2CCC(=C3c4ccc(Cl)cc4CCc4cccnc43)CC2)cn1 |  | > 100000 nM | 30 mg/kg | 5.5 mg/kg | 34 nM | ID50 (Rattus norvegicus [1]): > 5 mg/kg

Row | Compound | ED50 (Rattus norvegicus [1]) | IC50 (Oryctolagus cuniculus) | ED50 (Mus musculus [2]) | ED50 (Mus musculus [4]) | IC50 (Cavia porcellus [5]) | also measured
17 | Cc1ccncc1CN1CCC(=C2c3ccc(Cl)cc3CCc3cccnc32)CC1 |  | 15000 nM | 10 mg/kg |  | 35 nM | Inhibition (Mus musculus [13]): 56%
18 | Clc1ccc2c(c1)CCc1cccnc1C2=C1CCN(Cc2cccnc2Cl)CC1 |  | > 100000 nM |  | 4.5 mg/kg |  | IC50 (Cavia porcellus [12]): 350 nM
19 | O=C(c1ccc(Cl)nc1)N1CCC(=C2c3ccc(Cl)cc3CCc3cccnc32)CC1 | > 1 mg/kg | > 100000 nM | 20 mg/kg | 1.9 mg/kg |  | IC50 (Cavia porcellus [12]): 64 nM
20 | Clc1ccc2c(c1)CCc1cccnc1C2=C1CCN(Cc2ccc(Cl)nc2)CC1 |  | > 100000 nM | 20 mg/kg | 6.9 mg/kg |  | 
21 | CC(C)(C)c1ccc(C(O)CCCN2CCC(C(O)(c3ccccc3)c3ccccc3)CC2)cc1 (centres undefined) [TERFENADINE] |  |  |  |  |  | Relative to control (Mus musculus [9]): 90%; X (Mus musculus [10]): 133 min
22 | O=C(c1cc[n+]([O-])cc1)N1CCC(=C2c3ccc(Cl)cc3CCc3cccnc32)CC1 |  | 220 nM |  | 12 mg/kg |  | Inhibition (Rattus norvegicus [14]): 46.2%; IC50 (Cavia porcellus [12]): 210 nM
23 | CSc1ncccc1C(=O)N1CCC(=C2c3ccc(Cl)cc3CCc3cccnc32)CC1 | > 5 mg/kg | 20000 nM | > 30 mg/kg |  |  | Inhibition (Mus musculus [6]): 50%
24 | COC(=O)c1cncc(CN2CCC(=C3c4ccc(Cl)cc4CCc4cccnc43)CC2)c1.Cl | > 5 mg/kg | > 100000 nM |  |  | 190 nM | 
25 | Cc1ncccc1CN1CCC(=C2c3ccc(Cl)cc3CCc3cccnc32)CC1 |  | 13000 nM |  |  | 270 nM | Inhibition (Mus musculus [13]): 50%
26 | Clc1ccc2c(c1)CCc1cccnc1C2=C1CCN(Cc2cccnc2)CC1 |  | 4000 nM |  | 6.7 mg/kg | 93 nM | Inhibition (Rattus norvegicus [3]): 83.6%
27 | [O-][n+]1cccc(CN2CCC(=C3c4ccc(Cl)cc4CCc4cccnc43)CC2)c1 | > 5 mg/kg | 14000 nM | > 30 mg/kg |  |  | Inhibition (Rattus norvegicus [15]): 56%
28 | Clc1ccc2c(c1)CCc1cccnc1C2=C1CCN(Cc2cncc(Br)c2)CC1 |  | 720 nM | 10 mg/kg | 17 mg/kg | 280 nM | Inhibition (Rattus norvegicus [3]): 61.9%
29 | COc1ncccc1CN1CCC(=C2c3ccc(Cl)cc3CCc3cccnc32)CC1 | > 5 mg/kg | 6000 nM |  | 17 mg/kg |  | 
30 | CN1C(=O)CN=C(c2ccccc2)c2cc(Cl)ccc21 [DIAZEPAM] |  |  |  |  |  | Relative to control (Mus musculus [9]): 54%
31 | Cc1ccc(CN2CCC(=C3c4ccc(Cl)cc4CCc4cccnc43)CC2)cn1.Cl |  | 9000 nM |  | 12 mg/kg | 37 nM | Inhibition (Rattus norvegicus [3]): 96.4%
